Data: ChEMBL document CHEMBL2203039, “Azabenzthiazole inhibitors of leukotriene A₄ hydrolase” (Bioorg Med Chem Lett, 2012)

Tests used:
[1] = biological target: T1, Voltage-gated inwardly rectifying potassium channel KCNH2 (Homo sapiens, UniProt Q12809); assay: Inhibition of dofetilide binding to human ERG by radioligand binding assay
[2] = biological target: T2, Leukotriene A-4 hydrolase (Homo sapiens, UniProt P09960); assay: Inhibition of human recombinant LTA4 hydrolase expressed in SF9 cells using LTA4 as substrate assessed as LTB4 production incubated for 10 mins prior to substrate addition measured after 10 to 30 mins by enzyme immunoassay; assay type: cell-based
T2 sequence (P09960 whole entry): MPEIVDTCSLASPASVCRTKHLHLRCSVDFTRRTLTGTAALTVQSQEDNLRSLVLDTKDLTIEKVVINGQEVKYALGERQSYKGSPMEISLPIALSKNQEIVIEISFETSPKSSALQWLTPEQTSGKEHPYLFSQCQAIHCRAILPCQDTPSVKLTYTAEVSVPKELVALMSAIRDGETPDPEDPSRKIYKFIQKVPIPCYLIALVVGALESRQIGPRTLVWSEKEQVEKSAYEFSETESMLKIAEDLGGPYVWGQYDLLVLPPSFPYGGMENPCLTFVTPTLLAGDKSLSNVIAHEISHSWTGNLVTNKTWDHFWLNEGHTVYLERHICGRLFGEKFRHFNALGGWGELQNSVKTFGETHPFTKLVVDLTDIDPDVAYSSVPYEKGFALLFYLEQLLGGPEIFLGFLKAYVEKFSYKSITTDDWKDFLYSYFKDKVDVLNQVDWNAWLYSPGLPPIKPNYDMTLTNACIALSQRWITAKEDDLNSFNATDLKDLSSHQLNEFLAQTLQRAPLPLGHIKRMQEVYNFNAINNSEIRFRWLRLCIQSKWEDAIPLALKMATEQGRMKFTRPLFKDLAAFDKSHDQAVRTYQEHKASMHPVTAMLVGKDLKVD

Mus musculus [3] = species: Mus musculus; assay: animal or person; assay type: functional; details: Balb/c, 3 h, route oral
Mus musculus [4] = species: Mus musculus; assay: animal or person; assay type: functional, organism-based; details: Balb/c, Blood
Mus musculus [5] = species: Mus musculus; assay: animal or person; assay type: functional; details: Balb/c, Blood, 3 h, route oral
[6] = biological target: T1, Voltage-gated inwardly rectifying potassium channel KCNH2; assay: Inhibition of human ERG by patch clamp assay
[7] = Clearance in rat at 2 mg/kg, iv; assay type: ADME, organism-based; design: dose 2 mg/kg, route intravenous; details: in vivo
[8] = Cmax in rat at 10 mg/kg, po; assay type: ADME, organism-based; design: dose 10 mg/kg, route oral; details: in vivo
[9] = Volume of distribution at steady state in rat at 2 mg/kg, iv; assay type: ADME, organism-based; design: dose 2 mg/kg, route intravenous; details: in vivo, read-out: Vdss
[10] = Oral bioavailability in rat at 10 mg/kg; assay type: ADME, organism-based; details: in vivo
[11] = Half life in rat at 2 mg/kg, iv; assay type: ADME, organism-based; design: dose 2 mg/kg, route intravenous; details: in vivo

T1 sequence (Q12809 whole entry): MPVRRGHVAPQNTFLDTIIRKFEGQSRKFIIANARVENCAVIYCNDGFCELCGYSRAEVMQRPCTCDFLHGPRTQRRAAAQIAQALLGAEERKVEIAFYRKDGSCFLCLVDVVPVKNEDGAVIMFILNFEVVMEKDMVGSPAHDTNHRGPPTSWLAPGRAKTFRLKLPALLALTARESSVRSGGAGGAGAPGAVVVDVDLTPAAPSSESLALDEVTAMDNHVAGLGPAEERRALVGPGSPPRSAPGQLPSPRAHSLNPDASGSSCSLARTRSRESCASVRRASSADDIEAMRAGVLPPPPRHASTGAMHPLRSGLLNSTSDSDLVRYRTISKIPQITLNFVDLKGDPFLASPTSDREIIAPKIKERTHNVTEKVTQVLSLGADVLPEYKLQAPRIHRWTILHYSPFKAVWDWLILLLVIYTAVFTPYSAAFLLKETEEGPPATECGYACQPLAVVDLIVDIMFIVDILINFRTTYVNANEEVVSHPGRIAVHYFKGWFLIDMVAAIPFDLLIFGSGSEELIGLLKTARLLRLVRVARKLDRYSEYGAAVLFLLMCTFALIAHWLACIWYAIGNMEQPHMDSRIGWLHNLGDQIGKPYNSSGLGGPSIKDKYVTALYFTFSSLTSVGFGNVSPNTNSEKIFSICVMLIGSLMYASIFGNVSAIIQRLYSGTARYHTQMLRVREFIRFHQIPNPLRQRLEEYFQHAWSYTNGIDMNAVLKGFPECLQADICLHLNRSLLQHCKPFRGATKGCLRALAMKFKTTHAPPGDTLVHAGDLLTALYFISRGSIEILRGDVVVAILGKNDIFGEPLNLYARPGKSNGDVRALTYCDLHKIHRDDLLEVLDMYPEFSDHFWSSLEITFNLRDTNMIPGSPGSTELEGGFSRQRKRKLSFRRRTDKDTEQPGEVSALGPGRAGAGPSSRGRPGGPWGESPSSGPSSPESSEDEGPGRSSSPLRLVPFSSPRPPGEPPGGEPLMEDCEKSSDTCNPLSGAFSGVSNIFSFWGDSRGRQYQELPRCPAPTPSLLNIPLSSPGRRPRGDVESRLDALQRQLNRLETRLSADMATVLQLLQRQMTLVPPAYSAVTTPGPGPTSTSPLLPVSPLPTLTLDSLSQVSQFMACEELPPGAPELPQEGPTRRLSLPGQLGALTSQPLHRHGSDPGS

SMILES	IC50 [1] [nM]	IC50 [2] [nM]	inhibition in vivo at 30 mg/kg (Mus musculus [3]) [%]	IC50 (Mus musculus [4]) [nM]	inhibition in vivo at 30 mg/kg (Mus musculus [5]) [%]	IC50 [6] [nM]	clearance [7] [mL/min/kg]	Cmax [8] [nM]	Vd [9] [L/kg]	bioavailability [10] [%]	half-life [11] [h]
c1cnc2nc(Oc3ccc(CN4CCCCC4)cc3)sc2c1	> 10000	3	48	14	67						
c1cc2sc(Oc3ccc(CN4CCCCC4)cc3)nc2cn1		1800									
CC(=O)N1CC2CN(CCOc3ccc(Oc4nc5ncccc5s4)cc3)CC2C1 (centres undefined)	> 10000	7	86	30	81						
Cc1ccnc2nc(Oc3ccc(CN4CCCCC4)cc3)sc12			42	82	12						
NC(=O)C1CCN(Cc2ccc(Oc3nc4ncccc4s3)cc2)CC1	8900	6	89	37	85	> 10000					
CC(=O)N1CC2CC1CN2CCOc1ccc(Oc2nc3ncccc3s2)cc1 (centres undefined)		7	72	18	84						
c1cnc2nc(Oc3ccc(CCN4CCCCC4)cc3)sc2c1	> 10000		36	24	70						
CC(=O)N1CC2CN(CCc3ccc(Oc4nc5ncccc5s4)cc3)CC2C1 (centres undefined)	> 10000	6	79	22	86						
CC(=O)NC1CC2CCC(C1)N2CCOc1ccc(Oc2nc3ncccc3s2)cc1 (centres undefined)		4	74	24	85						
O=C1CCCN1C1CCN(Cc2ccc(Oc3nc4ncccc4s3)cc2)CC1	> 10000	6	88	27	81	> 10000					
O=C1CCCN1C1CCN(CCOc2ccc(Oc3nc4ncccc4s3)cc2)CC1	> 10000	6	76	20	89	2500					
CC(=O)NC1CC2CCC(C1)N2CCc1ccc(Oc2nc3ncccc3s2)cc1 (centres undefined)		0.3	78		85						
c1cnc2nc(Oc3ccc(OCCN4CCCCC4)cc3)sc2c1		8	62	18	65						
O=C1CCCN1C1CCN(CCc2ccc(Oc3nc4ncccc4s3)cc2)CC1		14	75	65	86	2800					
NC(=O)C1CCN(CCOc2ccc(Oc3nc4ncccc4s3)cc2)CC1	> 10000	16	71	30	80						
c1cc2nc(Oc3ccc(CN4CCCCC4)cc3)sc2cn1		614		723							
NC(=O)C1CCN(CCc2ccc(Oc3nc4ncccc4s3)cc2)CC1	> 10000	11	60	50	76						
CC(=O)NC1CC2CCC(C1)N2Cc1ccc(Oc2nc3ncccc3s2)cc1 (centres undefined)		1	70	20	81		20	1200	3.5	65	2
CC(=O)N1CC2CC1CN2CCc1ccc(Oc2nc3ncccc3s2)cc1 (centres undefined)		14	68	30	90						
NC(=O)C1CCN(Cc2ccc(Oc3nc4cccnc4s3)cc2)CC1		733		2040							
CC(=O)N1CC2CC1CN2Cc1ccc(Oc2nc3ncccc3s2)cc1 (centres undefined)	> 10000	5	88	7	92	> 10000	7	3300	1.4	125	3.3
Clc1cnc2nc(Oc3ccc(CN4CCCCC4)cc3)sc2c1	> 10000			245							
CC(=O)N1CC2CN(Cc3ccc(Oc4nc5ncccc5s4)cc3)CC2C1 (centres undefined)			95	10	57						
